Test results taken from PubChem BioAssay (NCI).
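Interpolation was linear, between the two tested concentrations surrounding the appropriate level; five concentrations were tested over 48 hours in 96-well plates. TGI marks complete inhibition of growth.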

Assays:
Test in all cases: inhibition of tumour cell growth, NCI panel, 48 h
786-0 renal = test system: 786-0 renal
A498 renal = test system: A498 renal
A549 NSCLC = test system: A549 NSCLC
ACHN renal = test system: ACHN renal
CAKI-1 renal = test system: CAKI-1 renal
CCRF-CEM leukemia = test system: CCRF-CEM leukemia
COLO 205 colon = test system: COLO 205 colon
DLD-1 colon = test system: DLD-1 colon
DMS 114 small cell lung = test system: DMS 114 small cell lung
DMS 273 small cell lung = test system: DMS 273 small cell lung
EKVX NSCLC = test system: EKVX NSCLC
HCC-2998 colon = test system: HCC-2998 colon
HCT-116 colon = test system: HCT-116 colon
HCT-15 colon = test system: HCT-15 colon
HL-60(TB) leukemia = test system: HL-60(TB) leukemia
HOP-18 NSCLC = test system: HOP-18 NSCLC
HOP-62 NSCLC = test system: HOP-62 NSCLC
HOP-92 NSCLC = test system: HOP-92 NSCLC
HT29 colon = test system: HT29 colon
IGROV1 ovarian = test system: IGROV1 ovarian
KM12 colon = test system: KM12 colon
KM20L2 colon = test system: KM20L2 colon
LOX IMVI melanoma = test system: LOX IMVI melanoma
LXFL 529 NSCLC = test system: LXFL 529 NSCLC
M14 melanoma = test system: M14 melanoma
M19-MEL melanoma = test system: M19-MEL melanoma
MALME-3M melanoma = test system: MALME-3M melanoma
MOLT-4 leukemia = test system: MOLT-4 leukemia
NCI-H226 lung = test system: NCI-H226 lung
NCI-H460 lung = test system: NCI-H460 lung
NCI-H522 lung = test system: NCI-H522 lung
OVCAR-3 ovarian = test system: OVCAR-3 ovarian
OVCAR-4 ovarian = test system: OVCAR-4 ovarian
OVCAR-5 ovarian = test system: OVCAR-5 ovarian
OVCAR-8 ovarian = test system: OVCAR-8 ovarian
RPMI-8226 leukemia = test system: RPMI-8226 leukemia
RXF 393 renal = test system: RXF 393 renal
RXF-631 renal = test system: RXF-631 renal
SF-268 CNS = test system: SF-268 CNS
SF-295 CNS = test system: SF-295 CNS
SF-539 CNS = test system: SF-539 CNS
SK-MEL-28 melanoma = test system: SK-MEL-28 melanoma
SK-MEL-5 melanoma = test system: SK-MEL-5 melanoma
SK-OV-3 ovarian = test system: SK-OV-3 ovarian
SN12C renal = test system: SN12C renal
SNB-19 CNS = test system: SNB-19 CNS
SNB-75 CNS = test system: SNB-75 CNS
SNB-78 CNS = test system: SNB-78 CNS
SR leukemia = test system: SR leukemia
SW-620 colon = test system: SW-620 colon
TK-10 renal = test system: TK-10 renal
U251 CNS = test system: U251 CNS
UACC-257 melanoma = test system: UACC-257 melanoma
UACC-62 melanoma = test system: UACC-62 melanoma
UO-31 renal = test system: UO-31 renal
K-562 leukemia = test system: K-562 leukemia
NCI-H23 lung = test system: NCI-H23 lung
SK-MEL-2 melanoma = test system: SK-MEL-2 melanoma
XF 498 CNS = test system: XF 498 CNS

Measured: TGI

OCC1C2C=CC(O2)[C@H]1CO (stereo not given in full)
> 100 µM: 786-0 renal | A498 renal | A549 NSCLC | ACHN renal | CAKI-1 renal | CCRF-CEM leukemia | COLO 205 colon | DLD-1 colon | DMS 114 small cell lung | DMS 273 small cell lung | EKVX NSCLC | HCC-2998 colon | HCT-116 colon | HCT-15 colon | HL-60(TB) leukemia | HOP-18 NSCLC | HOP-62 NSCLC | HOP-92 NSCLC | HT29 colon | IGROV1 ovarian | KM12 colon | KM20L2 colon | LOX IMVI melanoma | LXFL 529 NSCLC | M14 melanoma | M19-MEL melanoma | MALME-3M melanoma | MOLT-4 leukemia | NCI-H226 lung | NCI-H460 lung | NCI-H522 lung | OVCAR-3 ovarian | OVCAR-4 ovarian | OVCAR-5 ovarian | OVCAR-8 ovarian | RPMI-8226 leukemia | RXF 393 renal | RXF-631 renal | SF-268 CNS | SF-295 CNS | SF-539 CNS | SK-MEL-28 melanoma | SK-MEL-5 melanoma | SK-OV-3 ovarian | SN12C renal | SNB-19 CNS | SNB-75 CNS | SNB-78 CNS | SR leukemia | SW-620 colon | TK-10 renal | U251 CNS | UACC-257 melanoma | UACC-62 melanoma | UO-31 renal

COc1cc(C2C(C(=O)Nc3ccccc3C)=C(C)NC(C)=C2C(=O)Nc2ccccc2C)ccc1O
> 100 µM: 786-0 renal | A498 renal | A549 NSCLC | ACHN renal | CAKI-1 renal | CCRF-CEM leukemia | COLO 205 colon | DLD-1 colon | DMS 114 small cell lung | DMS 273 small cell lung | EKVX NSCLC | HCC-2998 colon | HCT-116 colon | HL-60(TB) leukemia | HOP-18 NSCLC | HOP-62 NSCLC | HOP-92 NSCLC | HT29 colon | IGROV1 ovarian | K-562 leukemia | KM12 colon | KM20L2 colon | LXFL 529 NSCLC | M14 melanoma | M19-MEL melanoma | MALME-3M melanoma | MOLT-4 leukemia | NCI-H226 lung | NCI-H23 lung | NCI-H460 lung | NCI-H522 lung | OVCAR-3 ovarian | OVCAR-4 ovarian | OVCAR-5 ovarian | OVCAR-8 ovarian | RPMI-8226 leukemia | RXF 393 renal | RXF-631 renal | SF-295 CNS | SF-539 CNS | SK-MEL-2 melanoma | SK-MEL-28 melanoma | SK-MEL-5 melanoma | SK-OV-3 ovarian | SN12C renal | SNB-19 CNS | SNB-75 CNS | SNB-78 CNS | SW-620 colon | TK-10 renal | U251 CNS | UACC-257 melanoma | UACC-62 melanoma | UO-31 renal | XF 498 CNS
